Measured values from PubChem BioAssay AID330 (DTP/NCI, 2004).
Where “and” joins values, the source holds several entries; their conditions need not be identical. Equal entries are not always repeated. Toxic doses and inconclusive results are not listed. The calls were made as follows: active = survival T/C of 150% or more; inactive = T/C below 125% in these data.

System: P388 leukemia ip, CD2F1 mice, survival T/C
Assay: NCI In Vivo Anticancer Drug Screen. Data for tumor model P388 Leukemia (intraperitoneal) in CD2F1 (CDF1) mice
Conditions: endpoint: median survival time, higher = longer survival
Method in brief: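 Mice carrying the transplanted tumor received test compound or vehicle. Survival was recorded in each group, and the value is the treated-group measurement divided by that of the vehicle-treated control group.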

[1] = dose: 50.0 mg/kg/injection, schedule: Q01DX005 (ip), vehicle: Klucel (hydroxypropylcellulose) (HPC)
[2] = dose: 100.0 mg/kg/injection, schedule: Q01DX005 (ip), vehicle: Klucel (hydroxypropylcellulose) (HPC)
[3] = dose: 200.0 mg/kg/injection, schedule: Q01DX005 (ip), vehicle: Klucel (hydroxypropylcellulose) (HPC)
[4] = dose: 50.0 mg/kg/injection, schedule: Q01DX009 (ip), vehicle: Klucel (hydroxypropylcellulose) (HPC)
[5] = dose: 100.0 mg/kg/injection, schedule: Q01DX009 (ip), vehicle: Klucel (hydroxypropylcellulose) (HPC)
[6] = dose: 50.0 mg/kg/injection, schedule: Q01DX009 (ip), vehicle: saline with Tween-80
[7] = dose: 100.0 mg/kg/injection, schedule: Q01DX009 (ip), vehicle: saline with Tween-80
[8] = dose: 50.0 mg/kg/injection, schedule: Q01DX005 (ip), vehicle: saline
[9] = dose: 100.0 mg/kg/injection, schedule: Q01DX005 (ip), vehicle: saline
[10] = dose: 200.0 mg/kg/injection, schedule: Q01DX005 (ip), vehicle: saline
[11] = dose: 50.0 mg/kg/injection, schedule: Q01DX009 (ip), vehicle: saline
[12] = dose: 100.0 mg/kg/injection, schedule: Q01DX009 (ip), vehicle: saline

Measured: T/C

CC(=O)N1c2ccccc2C23CCN4CC5=CCOC(O)C(C5CC42)C13 (stereo unspecified)
inactive: dose: 20.0 mg/kg/injection, schedule: Q01DX009 (ip), vehicle: Klucel (hydroxypropylcellulose) (HPC) 107 % of control | dose: 40.0 mg/kg/injection, schedule: Q01DX009 (ip), vehicle: Klucel (hydroxypropylcellulose) (HPC) 108 % of control | dose: 80.0 mg/kg/injection, schedule: Q01DX009 (ip), vehicle: Klucel (hydroxypropylcellulose) (HPC) 110 % of control | dose: 160.0 mg/kg/injection, schedule: Q01DX009 (ip), vehicle: Klucel (hydroxypropylcellulose) (HPC) 118 % of control

C1C2CC3C1C1OC3C21
inactive: dose: 60.0 mg/kg/injection, schedule: Q01DX005 (ip), vehicle: Klucel (hydroxypropylcellulose) (HPC) 100 % of control | dose: 120.0 mg/kg/injection, schedule: Q01DX005 (ip), vehicle: Klucel (hydroxypropylcellulose) (HPC) 99 % of control | dose: 240.0 mg/kg/injection, schedule: Q01DX005 (ip), vehicle: Klucel (hydroxypropylcellulose) (HPC) 100 % of control

CSC1=NN(C(C)=O)C(c2ccccn2)S1 (stereo unspecified)
inactive: [1] 100 % of control | [2] 100 % of control | [3] 101 % of control

Nc1nc2c(c(=O)[nH]1)CN(CCCN1CCN(CCCN3CNc4nc(N)[nH]c(=O)c4C3)CC1)CN2
inactive: [1] 94 % of control | [2] 99 % of control | [3] 91 % of control

COc1ccc2oc(N(C)c3ccccc3)c(C3OC4OC(C)(C)OC4C3OC)c(=O)c2c1 (stereo unspecified)
inactive: dose: 25.0 mg/kg/injection, schedule: Q01DX001 (ip), vehicle: Klucel (hydroxypropylcellulose) (HPC) 97 % of control | dose: 50.0 mg/kg/injection, schedule: Q01DX001 (ip), vehicle: Klucel (hydroxypropylcellulose) (HPC) 105 % of control | dose: 100.0 mg/kg/injection, schedule: Q01DX001 (ip), vehicle: Klucel (hydroxypropylcellulose) (HPC) 109 % of control

O=c1nc2c3[nH]cnc3ncn2o1
inactive: dose: 12.5 mg/kg/injection, schedule: Q01DX009 (ip), vehicle: Klucel (hydroxypropylcellulose) (HPC) 101 % of control | dose: 25.0 mg/kg/injection, schedule: Q01DX009 (ip), vehicle: Klucel (hydroxypropylcellulose) (HPC) 106 % of control | [4] 101 % of control and 93 % of control | [5] 105 % of control

O=C1c2c(O)ccc(O)c2C(=O)c2c(NCCCCO)ccc(NCCCCO)c21
inactive: dose: 0.62 mg/kg/injection, schedule: Q01DX009 (ip), vehicle: acid diluted with saline 103 % of control | dose: 1.25 mg/kg/injection, schedule: Q01DX009 (ip), vehicle: acid diluted with saline 103 % of control | dose: 2.5 mg/kg/injection, schedule: Q01DX009 (ip), vehicle: acid diluted with saline 103 % of control | dose: 5.0 mg/kg/injection, schedule: Q01DX009 (ip), vehicle: acid diluted with saline 112 % of control | dose: 10.0 mg/kg/injection, schedule: Q01DX009 (ip), vehicle: acid diluted with saline 102 % of control | dose: 20.0 mg/kg/injection, schedule: Q01DX009 (ip), vehicle: acid diluted with saline 100 % of control | dose: 40.0 mg/kg/injection, schedule: Q01DX009 (ip), vehicle: acid diluted with saline 98 % of control | dose: 80.0 mg/kg/injection, schedule: Q01DX009 (ip), vehicle: acid diluted with saline 92 % of control | dose: 160.0 mg/kg/injection, schedule: Q01DX009 (ip), vehicle: acid diluted with saline 86 % of control

C=CC(C)(C)[N+](C)(C)C
inactive: dose: 12.5 mg/kg/injection, schedule: Q01DX009 (ip), vehicle: saline 99 % of control | dose: 25.0 mg/kg/injection, schedule: Q01DX009 (ip), vehicle: saline 102 % of control

C/C(C#N)=C/c1ccccc1
inactive: [6] 104 % of control | [7] 118 % of control

COC1=CC(=N/Br)/C=CC/1=N/Br
inactive: [8] 98 % of control and 103 % of control | [9] 99 % of control and 100 % of control and 105 % of control | [10] 99 % of control and 107 % of control and 120 % of control

CC(C)=NN/C=N/S(=O)(=O)c1ccc(C)cc1
inactive: [1] 104 % of control | [2] 104 % of control | [3] 104 % of control

CCCCCCCCCCCCCC1=NCCN1CCN
inactive: dose: 6.25 mg/kg/injection, schedule: Q01DX009 (ip), vehicle: saline with Tween-80 108 % of control and 94 % of control | dose: 12.5 mg/kg/injection, schedule: Q01DX009 (ip), vehicle: saline with Tween-80 105 % of control and 108 % of control and 109 % of control | dose: 25.0 mg/kg/injection, schedule: Q01DX009 (ip), vehicle: saline with Tween-80 107 % of control and 108 % of control and 111 % of control | [6] 99 % of control and 108 % of control | [11] 96 % of control | [12] 87 % of control

CC(O)C(C)C(N)C(=O)O (stereo unspecified)
inactive: dose: 8.25 mg/kg/injection, schedule: Q01DX005 (ip), vehicle: water 100 % of control | dose: 16.5 mg/kg/injection, schedule: Q01DX005 (ip), vehicle: water 98 % of control | dose: 33.0 mg/kg/injection, schedule: Q01DX005 (ip), vehicle: water 100 % of control | dose: 66.0 mg/kg/injection, schedule: Q01DX005 (ip), vehicle: water 99 % of control

CCOC(=O)c1ccc(N2C(=O)OC(C)(C)C2=O)cc1
inactive: [1] 103 % of control | [2] 97 % of control | [3] 101 % of control

CCN(CC)CCNC(=O)c1nn(-c2ccc(C)cc2)c2c1N(C)S(=O)(=O)c1ccccc1-2
inactive: dose: 100.0 mg/kg/injection, schedule: Q01DX001 (ip), vehicle: saline with Tween-80 100 % of control | dose: 200.0 mg/kg/injection, schedule: Q01DX001 (ip), vehicle: saline with Tween-80 97 % of control | dose: 400.0 mg/kg/injection, schedule: Q01DX001 (ip), vehicle: saline with Tween-80 97 % of control

O=C(O)c1ccc(CCCBr)cc1
inactive: [7] 105 % of control | dose: 200.0 mg/kg/injection, schedule: Q01DX009 (ip), vehicle: saline with Tween-80 100 % of control | dose: 400.0 mg/kg/injection, schedule: Q01DX009 (ip), vehicle: saline with Tween-80 97 % of control

CCN(CC)CCCC(CCl)Nc1ccnc2cc(Cl)ccc12 (stereo unspecified)
inactive: [4] 113 % of control | [11] 97 % of control | [5] 100 % of control | [12] 100 % of control | dose: 200.0 mg/kg/injection, schedule: Q01DX009 (ip), vehicle: Klucel (hydroxypropylcellulose) (HPC) 98 % of control

CN(C)CCSC1=Nc2ccc(Cl)cc2C(c2ccccc2Cl)=NC1
inactive: dose: 60.0 mg/kg/injection, schedule: Q01DX005 (ip), vehicle: saline with Tween-80 98 % of control | dose: 60.0 mg/kg/injection, schedule: Q01DX005 (ip), vehicle: saline 99 % of control | dose: 120.0 mg/kg/injection, schedule: Q01DX005 (ip), vehicle: saline with Tween-80 101 % of control | dose: 120.0 mg/kg/injection, schedule: Q01DX005 (ip), vehicle: saline 104 % of control | dose: 240.0 mg/kg/injection, schedule: Q01DX005 (ip), vehicle: saline with Tween-80 105 % of control | dose: 240.0 mg/kg/injection, schedule: Q01DX005 (ip), vehicle: saline 98 % of control

Clc1ccnc2ccc3ncccc3c12
inactive: dose: 3.12 mg/kg/injection, schedule: Q04DX002 (ip), vehicle: saline with Tween-80 113 % of control | dose: 6.25 mg/kg/injection, schedule: Q04DX002 (ip), vehicle: saline with Tween-80 103 % of control | dose: 12.5 mg/kg/injection, schedule: Q04DX002 (ip), vehicle: saline with Tween-80 100 % of control

O=C(NC(CO)C(=O)O)C(Cl)Cl (stereo unspecified)
inactive: [1] 101 % of control | [2] 95 % of control | [3] 101 % of control

O=C(O)CCC/C=N/O
inactive: dose: 100.0 mg/kg/injection, schedule: Q04DX003 (ip), vehicle: Klucel (hydroxypropylcellulose) (HPC) 98 % of control | dose: 200.0 mg/kg/injection, schedule: Q04DX003 (ip), vehicle: Klucel (hydroxypropylcellulose) (HPC) 99 % of control | dose: 400.0 mg/kg/injection, schedule: Q04DX003 (ip), vehicle: Klucel (hydroxypropylcellulose) (HPC) 102 % of control

O=C1c2ccccc2C(=O)c2c(NCCNCCO)ccc(NCCO)c21
inactive: dose: 5.0 mg/kg/injection, schedule: Q04DX002 (ip), vehicle: saline 115 % of control

Cc1cc(S(=O)(=O)O)ccc1N=c1ccc2c(-c3ccccc3C(=O)O)c3ccc(Nc4ccccc4C)cc3oc-2c1
inactive: [8] 88 % of control | [9] 105 % of control | [10] 91 % of control

O=CC(O)C(O)C(O)COc1cc(CO)cc2c1C(=O)c1ccccc1C2=O (stereo unspecified)
inactive: dose: 12.5 mg/kg/injection, schedule: Q01DX005 (ip), vehicle: Klucel (hydroxypropylcellulose) (HPC) 100 % of control | dose: 25.0 mg/kg/injection, schedule: Q01DX005 (ip), vehicle: Klucel (hydroxypropylcellulose) (HPC) 107 % of control | [1] 106 % of control and 110 % of control | [2] 106 % of control and 107 % of control
